Reference: patent publication EP0884321A1, “Ascorbic acid 2-phosphate zinc salt and process for manufacturing the same” (priority 1997, dated 1998)
Where a name gives a salt, the structure may show the parent alone. Read-outs that look alike come from different tables or passages of the source.

Legend:
[1] = Stability in buffer solution on storage (HPLC); assay type: physicochemical; details: about 0.1%, stored at 50°C for 476 hours; for Stability (100% = concentration before storage) pH: 8: 50 mM Tris-HCl; for Stability (100% = concentration before storage) pH: 5: 50 mM acetic acid-NaOH
Experimental: In the Examples and Test Examples, the analysis of an L-ascorbic acid 2-phosphate salt or an ion thereof was performed using an Ap-containing solution having a known concentration (prepared from L-ascorbic acid 2-phosphate magnesium salt) as a standard by an HPLC method using a Shodex IEC DEAE-825 resin (ammonium acetate 10 mM → 1M gradient, detected spectrophotometrically at 265 nm). The elemental analysis was performed by an ICP emission method, flame photometry and an ion chromatography method. Unless otherwise indicated, the reagents used herein were commercially available reagents.
The stability of L-ascorbic acid 2-phosphate zinc salt was compared to that of L-ascorbic acid 2-phosphate magnesium salt. Each salt was dissolved in a buffer solution (50 mM acetic acid-NaOH, pH: 5, or 50 mM Tris-HCl, pH: 8) to a concentration of about 0.1% and stored at 50°C for 476 hours. The concentrations of the L-ascorbic acid 2-phosphate before and after storage were analyzed by the HPLC method.

[2] = system: B. subtilis (168 strain); assay: Antimicrobial effect, turbidity in NUTRIENT BROTH; assay type: cell-based; details: 0.1% salt, pH 6.8, about 10^7 cells/ml, 37°C for 24 hours
Experimental: (§1) To NUTRIENT BROTH (produced by DIFCO), 0.1% of an L-ascorbic acid 2-phosphate salt was added thereto, and the pH was adjusted to 6.8 using hydrochloric acid or sodium hydroxide. Using 5 ml of the medium thus prepared, test bacterium were inoculated in a concentration of about 10^7 cells/ml and incubated in a test tube at 37°C for 24 hours. […] As a control, the same test was performed using a medium not containing an L-ascorbic acid 2-phosphate salt.

[3] = system: E. coli (K-12 strain); assay: Antimicrobial effect, turbidity in NUTRIENT BROTH; assay type: cell-based; details: 0.1% salt, pH 6.8, about 10^7 cells/ml, 37°C for 24 hours
Experimental: as §1

[4] = cited from earlier work
[5] = Solubility in water
[6] = background statement on known salts

SMILES	turbidity after incubation, B. subtilis (168 strain) [2]	turbidity after incubation, E. coli (K-12 strain) [3]	concentration of aqueous solution that can be formed (solubility in water) [4, 6]	other results
O=C1O[C@H]([C@@H](O)CO)C(O)=C1OP(=O)([O-])[O-].[Mg+2] [L-ascorbic acid 2-phosphate magnesium salt]	+	+	< 30%	Stability (100% = concentration before storage) pH: 8 ([1]; pH: 8): 95%; Stability (100% = concentration before storage) pH: 5 ([1]; pH: 5): 82%
O=C1O[C@H]([C@@H](O)CO)C(O)=C1OP(=O)([O-])[O-].[Zn+2] [L-ascorbic acid 2-phosphate zinc salt (Example 2)]				Stability (100% = concentration before storage) pH: 8 ([1]; pH: 8, 28560 min): 95%; Stability (100% = concentration before storage) pH: 5 ([1]; pH: 5, 28560 min): 92%
O=C1O[C@H]([C@@H](O)CO)C(O)=C1OP(=O)(O)O [calcium salt]			scarcely dissolves in water	
O=C1O[C@H]([C@@H](O)CO)C(O)=C1OP(=O)([O-])[O-].[Na+].[Na+]	+	+		concentration of aqueous solution that can be formed (solubility in water) [4]: about 30%
O=C1O[C@H]([C@@H](O)CO)C(O)=C1OP(=O)([O-])[O-].[Zn+2] [L-ascorbic acid 2-phosphate zinc salt]	-	-		remaining at 476 h ([1]; 50 mm acetic acid-naoh, pH 5, 50 mM acetic acid-NaOH, pH: 5, read-out: Stability (100% = concentration before storage) pH: 5): 91%; remaining at 476 h ([1]; 50 mm tris-hcl, pH 8, 50 mM Tris-HCl, pH: 8, read-out: Stability (100% = concentration before storage) pH: 8): 93%; solubility [5]: ≥ 500 mg/mL
